Earlier results, collected in patent publication US20110201631A1, “PHARMACEUTICAL FORMULATIONS COMPRISING PEMETREXED” (DR. REDDY'S LABORATORIES LTD., priority 2008, published 2011).

Settings: U.S. Pat. No. 7,138,521

Nc1nc2[nH]cc(CCc3ccc(C(=O)N[C@@H](CCC(=O)[O-])C(=O)[O-])cc3)c2c(=O)[nH]1.[Na+].[Na+] [heptahydrate, L-Glutamic acid, N-[4-[2-(2-amino-4,7-dihydro-4-oxo-1H-pyrrolo[2,3-c]pyrimidin-5-yl)ethyl]benzoyl]-, disodium salt, heptahydrate]
Stability of crystal form relative to 2.5 hydrate: much more stable than the previously known 2.5 hydrate
